# Results reported in patent US20260042769A1, “TRIARYL AGONISTS OF ALPHA-2 ADRENERGIC RECEPTORS” (ALCEPTOR THERAPEUTICS, INC., priority 2023, published 2026).
# Target: T1, human ADRA2B receptor (Homo sapiens, UniProt P18089)
# T1 construct: expressed in transfected cells
# T1 sequence (P18089 1-450): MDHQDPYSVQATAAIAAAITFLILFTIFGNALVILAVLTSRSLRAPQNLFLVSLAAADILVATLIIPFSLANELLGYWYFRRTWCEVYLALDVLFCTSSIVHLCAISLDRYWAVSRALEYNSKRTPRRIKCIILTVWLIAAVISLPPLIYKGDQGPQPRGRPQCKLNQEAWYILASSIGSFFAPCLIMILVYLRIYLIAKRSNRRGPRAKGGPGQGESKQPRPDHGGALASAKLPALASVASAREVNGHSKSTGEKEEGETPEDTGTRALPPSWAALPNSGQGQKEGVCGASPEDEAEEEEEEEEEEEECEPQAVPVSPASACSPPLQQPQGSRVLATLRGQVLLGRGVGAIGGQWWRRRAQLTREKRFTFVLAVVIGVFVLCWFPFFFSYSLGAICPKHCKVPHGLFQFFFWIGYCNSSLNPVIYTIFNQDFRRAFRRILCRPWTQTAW
# Experiment: GTPγS agonist assay, ADRA2B receptor
# Format: biochemical
# Details: read-out: GTPase - Human Alpha2B EC50
# Method in brief: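 CHO-K1 membranes stably expressing human ADRA2B (5 μg protein) in 20 mM HEPES, 10 mM MgCl2, 200 mM NaCl with GDP, preincubated 10 min at room temperature with compound. Binding reaction 1 h at 37° C; bound label collected on GF/C filters, washed, read by scintillation counting.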
row,SMILES,EC50
1,"COc1cccc(C(Cc2ccnc(C)n2)c2c[nH]cn2)c1C (centres unmarked) [Compound 149, 4-[2-(4-imidazolyl)-2-(3-methoxy-2-tolyl)ethyl]-2-methylpyrimidine]",10 to 50 nM
2,"Cc1cccc([C@H](Cc2ccnc(CF)n2)c2c[nH]cn2)c1C [Compound 152, 4-[(S)-2-(4-imidazolyl)-2-(2,3-xylyl)ethyl]-2-(fluoromethyl) pyrimidine]",50 to 500 nM
3,"COc1nccc(CC(c2ccc(Cl)cc2)c2c[nH]cn2)n1 (centres unmarked) [Compound 159, 4-[2-(p-chlorophenyl)-2-(4-imidazolyl)ethyl]-2-methoxypyrimidine]",50 to 500 nM
4,"COc1c(Cl)cccc1C(Cc1cccnn1)c1c[nH]cn1 (centres unmarked) [Compound 160, 3-[2-(3-chloro-2-methoxyphenyl)-2-(4-imidazolyl)ethyl] pyridazine]",> 500 nM
5,"Cc1nccc(CC(c2c[nH]cn2)c2cccc3c2ccn3C)n1 (centres unmarked) [Compound 164, 4-[2-(4-imidazolyl)-2 (1-methyl-4-indolyl)ethyl]-2-methylpyrimidine]",< 10 nM
6,"FC(F)(F)c1ccccc1C(Cc1cccnn1)c1c[nH]cn1 (centres unmarked) [Compound 166, 3-{2-(4-imidazolyl)-2-[o-(trifluoromethyl)phenyl]ethyl}pyridazine]",> 500 nM
7,"Clc1cccc(C(Cc2cccnn2)c2c[nH]cn2)c1Cl (centres unmarked) [Compound 170, 3-[2-(2,3-dichlorophenyl)-2-(4-imidazolyl)ethyl] pyridazine]",50 to 500 nM
8,"COc1nccc(CC(c2c[nH]cn2)c2cccc(C#N)c2C)n1 (centres unmarked) [Compound 171, 6-[1-(4-imidazolyl)-2-(2-methoxy-4-pyrimidinyl)ethyl]-2-toluonitrile]",50 to 500 nM
9,"COc1nccc(CC(c2c[nH]cn2)c2cccc3cn[nH]c23)n1 (centres unmarked) [Compound 172, 7-[1-(4-imidazolyl)-2-(2-methoxy-4-pyrimidinyl)ethyl]-1H-indazole]",> 500 nM
10,"Fc1ccc(C(Cc2cccnn2)c2c[nH]cn2)c(F)c1Cl (centres unmarked) [Compound 173, 3-[2-(3-chloro-2,4-difluorophenyl)-2-(4-imidazolyl)ethyl] pyridazine]",> 500 nM
11,"COc1nccc(CC(c2c[nH]cn2)c2cccc3ncoc23)n1 (centres unmarked) [Compound 174, 7-[1-(4-imidazolyl)-2-(2-methoxy-4-pyrimidinyl)ethyl]-1,3-benzoxazole]",50 to 500 nM
12,"COc1nccc(CC(c2c[nH]cn2)c2cccc(C#N)c2F)n1 (centres unmarked) [Compound 177, 2-fluoro-3-[1-(4-imidazolyl)-2-(2-methoxy-4-pyrimidinyl)ethyl] benzonitrile]",50 to 500 nM
13,"COc1nccc(CC(c2c[nH]cn2)c2cccc(OC)c2C)n1 (centres unmarked) [Compound 178, 4-[2-(4-imidazolyl)-2-(3-methoxy-2-tolyl)ethyl]-2-methoxypyrimidine]",10 to 50 nM
14,"COc1nccc(CC(c2c[nH]cn2)c2cc(Cl)ccc2C)n1 (centres unmarked) [Compound 184, 4-[2-(5-chloro-2-tolyl)-2-(4-imidazolyl)ethyl]-2-methoxypyrimidine]",50 to 500 nM
15,"COc1nccc(CC(c2c[nH]cn2)c2cccc(Cl)c2C)n1 (centres unmarked) [Compound 185, 4-[2-(3-chloro-2-tolyl)-2-(4-imidazolyl)ethyl]-2-methoxypyrimidine]",< 10 nM
16,"COc1nccc(CC(c2c[nH]cn2)c2cccc(C)c2Cl)n1 (centres unmarked) [Compound 186, 4-[2-(2-chloro-3-tolyl)-2-(4-imidazolyl)ethyl]-2-methoxypyrimidine]",< 10 nM
17,"COc1nccc(CC(c2ccc(C(F)F)cc2)c2c[nH]cn2)n1 (centres unmarked) [Compound 188, 4-{2-[p-(difluoromethyl)phenyl]-2-(4-imidazolyl)ethyl}-2-methoxypyrimidine]",> 500 nM
18,"COc1nccc(CC(c2c[nH]cn2)c2cccc3c2ccn3C)n1 (centres unmarked) [Compound 193, 4-[2-(4-imidazolyl)-2-(1-methyl-4-indolyl)ethyl]-2-methoxypyrimidine]",< 10 nM
19,"COc1nccc(CC(c2c[nH]cn2)c2cccc3c2cnn3C)n1 (centres unmarked) [Compound 194, 4-[1-(4-imidazolyl)-2-(2-methoxy-4-pyrimidinyl)ethyl]-1-methyl-1H-indazole]",10 to 50 nM
20,"COc1nccc(CC(c2c[nH]cn2)c2cccc(Cl)c2C#N)n1 (centres unmarked) [Compound 196, 6-chloro-2-[1-(4-imidazolyl)-2-(2-methoxy-4-pyrimidinyl)ethyl] benzonitrile]",50 to 500 nM
21,"COc1nccc(CC(c2c[nH]cn2)c2cccc(Cl)c2OC)n1 (centres unmarked) [Compound 198, 4-[2-(3-chloro-2-methoxyphenyl)-2-(4-imidazolyl)ethyl]-2-methoxypyrimidine]",10 to 50 nM
22,"COc1nccc(CC(c2ccc(C(F)(F)F)cc2)c2c[nH]cn2)n1 (centres unmarked) [Compound 199, 4-{2-(4-imidazolyl)-2-[p-(trifluoromethyl)phenyl]ethyl}-2-methoxypyrimidine]",> 500 nM

row,SMILES,EC50
1,"COc1nccc(CC(c2c[nH]cn2)c2cccc(Cl)c2Cl)n1 (centres unmarked) [Compound 200, 4-[2-(2,3-dichlorophenyl)-2-(4-imidazolyl)ethyl]-2-methoxypyrimidine]",< 10 nM
2,"FC(F)(F)c1ccc(C(Cc2cccnn2)c2c[nH]cn2)c(Cl)c1 (centres unmarked) [Compound 201, 3-{2-[2-chloro-4-(trifluoromethyl)phenyl]-2-(4-imidazolyl)ethyl} pyridazine]",> 500 nM
3,"COc1nccc(CC(c2ccc(OC(F)(F)F)cc2)c2c[nH]cn2)n1 (centres unmarked) [Compound 203, 4-[2-(4-imidazolyl)-2 (p-trifluoromethoxyphenyl)ethyl]-2-methoxypyrimidine]",> 500 nM
4,"COc1cc(OC(F)(F)F)cc(C(Cc2ccnc(OC)n2)c2c[nH]cn2)c1 (centres unmarked) [Compound 204, 4-[2-(4-imidazolyl)-2-(3-methoxy-5-trifluoromethoxyphenyl)ethyl]-2-methoxypyrimidine]",> 500 nM
5,"Cc1cccc([C@H](Cc2cccnn2)c2c[nH]cn2)c1Cl [Compound 213, 3-[(S)-2-(2-chloro-3-tolyl)-2-(4-imidazolyl)ethyl] pyridazine]",10 to 50 nM
6,"Cc1cccc([C@@H](Cc2cccnn2)c2c[nH]cn2)c1Cl [Compound 214, 3-[(R)-2-(2-chloro-3-tolyl)-2-(4-imidazolyl)ethyl] pyridazine]",> 500 nM
7,"Clc1ccc(C(Cc2cccnn2)c2c[nH]cn2)cc1 (centres unmarked) [Compound 217, 3-[2-(p-chlorophenyl)-2-(4-imidazolyl)ethyl] pyridazine]",> 500 nM
8,"Fc1cccc(C(Cc2cccnn2)c2c[nH]cn2)c1Cl (centres unmarked) [Compound 218, 3-[2-(2-chloro-3-fluorophenyl)-2-(4-imidazolyl)ethyl] pyridazine]",> 500 nM
9,"Fc1c(Cl)cccc1C(Cc1cccnn1)c1c[nH]cn1 (centres unmarked) [Compound 219, 3-[2-(3-chloro-2-fluorophenyl)-2-(4-imidazolyl)ethyl] pyridazine]",> 500 nM
10,"FC(F)(F)Oc1ccc(C(Cc2cccnn2)c2c[nH]cn2)cc1 (centres unmarked) [Compound 220, 3-[2-(4-imidazolyl)-2-(p-trifluoromethoxyphenyl)ethyl]pyridazine]",> 500 nM
11,"Cc1ccc(C(F)(F)F)cc1C(Cc1cccnn1)c1c[nH]cn1 (centres unmarked) [Compound 221, 3-{2-(4-imidazolyl)-2-[5-(trifluoromethyl)-2-tolyl]ethyl}pyridazine]",> 500 nM
12,"COc1ccc(C(Cc2cccnn2)c2c[nH]cn2)cc1 (centres unmarked) [Compound 222, 3-[2-(4-imidazolyl)-2-(p-methoxyphenyl)ethyl] pyridazine]",> 500 nM
13,"FC(F)(F)c1ccc(C(Cc2cccnn2)c2c[nH]cn2)cc1 (centres unmarked) [Compound 223, 3-{2-(4-imidazolyl)-2-[p-(trifluoromethyl)phenyl]ethyl}pyridazine]",> 500 nM
14,"Fc1ccc(C(Cc2cccnn2)c2c[nH]cn2)cc1F (centres unmarked) [Compound 224, 3-[2-(3,4-difluorophenyl)-2-(4-imidazolyl)ethyl] pyridazine]",> 500 nM
15,"Cc1ccc(Cl)cc1C(Cc1cccnn1)c1c[nH]cn1 (centres unmarked) [Compound 225, 3-[2-(5-chloro-2-tolyl)-2-(4-imidazolyl)ethyl] pyridazine]",> 500 nM
16,"CCOc1ccc(C(Cc2cccnn2)c2c[nH]cn2)cc1C(F)(F)F (centres unmarked) [Compound 226, 3-(2-[4-ethoxy-3-(trifluoromethyl)phenyl]-2-(4-imidazolyl)ethyl] pyridazine]",> 500 nM
17,"COc1ccc(Cl)c(C(Cc2cccnn2)c2c[nH]cn2)c1 (centres unmarked) [Compound 227, 3-[2-(2-chloro-5-methoxyphenyl)-2-(4-imidazolyl)ethyl] pyridazine]",> 500 nM
18,"Cc1cccc(C(Cc2cccnn2)c2c[nH]cn2)c1 (centres unmarked) [Compound 228, 3-[2-(4-imidazolyl)-2-(m-tolyl)ethyl]pyridazine]",> 500 nM
19,"C#Cc1cccc(C(Cc2cccnn2)c2c[nH]cn2)c1 (centres unmarked) [Compound 229, 3-[2-(m-ethynylphenyl)-2-(4-imidazolyl)ethyl] pyridazine]",> 500 nM
20,"Cn1ncc2cc(C(Cc3cccnn3)c3c[nH]cn3)ccc21 (centres unmarked) [Compound 230, 5-[1-(4-imidazolyl)-2-(3-pyridazinyl)ethyl]-1-methyl-1H-indazole]",> 500 nM
21,"CCOc1c(F)cccc1C(Cc1cccnn1)c1c[nH]cn1 (centres unmarked) [Compound 231, 3-[2-(2-ethoxy-3-fluorophenyl)-2-(4-imidazolyl)ethyl] pyridazine]",> 500 nM
22,"Cc1nnc(CC(c2c[nH]cn2)c2cccc(C)c2C)o1 (centres unmarked) [Compound 241, 2-[2-(4-imidazolyl)-2-(2,3-xylyl)ethyl]-5-methyl-1,3,4-oxadiazole]",10 to 50 nM
